Structures are written as SMILES. Where two headings read alike, the source gives them in different places.

Experiment [1] relates to HCV 1b-BB7 subgenomic replicon. Kind of experiment: microbe, parasite or virus in culture. The class given is cell-based, HCV genotype 1b. Conditions: Hepatitis C virus, stable replicon. Background: A replicon is a self-replicating genome or part of one, used to study replication in cells.
Experiment [2] concerns HCV 1a-H77 subgenomic replicon. As to the kind of experiment: microbe, parasite or virus in culture. The class given is cell-based, HCV genotype 1a. Conditions: Hepatitis C virus, stable replicon.
Experiment [3] has as its target T1, HCV NS5B polymerase 1a-H77-C316Y (Hepatitis C virus genotype 1a, UniProt P27958, C2736Y).
T1 construct: six-histidine tag; made in house; host or cells: E. coli
As to the kind of experiment: biochemical. More on the design: species or system HCV genotype 1a. The procedure: (§1) Purified HCV NS5B polymerase enzymes were used for polymerase inhibition assays. All recombinant HCV polymerases contained the first 570 amino acids of the 591 amino acid native protein sequence and a six-histidine tag at the N-terminus or C-terminus to facilitate purification by affinity chromatography. The DNA nucleotide sequence for the HCV polymerase 1b BK strain was codon optimized for expression in E. coli. A synthetic gene was prepared from a series of overlapping oligonucleotides that were filled in using a DNA polymerase and amplified by PCR. The patient isolate HCV polymerases were cloned by RT-PCR methods using HCV RNA extracted from the serum of infected subjects obtained from ProMedDx and BioCollections (genotypes 2a, 2b, 3a, and 4a). Laboratory strains were cloned from plasmid DNA (1a-H77 or 1a-H77-C316Y) or from existing replicon cells (1b Rice). In all cases the amplified DNA was cloned into a protein expression vector (typically a pET vector from Novagen) and then multiple clones were sequenced to identify one whose NS5B sequence agreed with the population sequence. This sequence-confirmed clone was then transfected into E. coli for protein expression and purification. E. coli cultures were grown to a maximum optical density (OD) of 2-3 and then induced with 0.4 mM isopropyl beta-D-thiogalactopyranoside (IPTG) and grown for 20 hours at 20° C.
(§2) Proteins were purified using nickel affinity chromatography, and additional column steps were added including, ion exchange, size exclusion, hydrophobic ion, and poly-U affinity chromatography, as needed, depending on the sample being purified. The template RNA used in the polymerase enzymatic assay was a 2.1 kb construct that corresponds to the 3′-end of an HCV genotype 1b negative strand RNA.
(§3) The reaction was initiated by the addition of 20 μM CTP, 20 μM ATP, 0.284 μM (0.5 μCi) of 5,6-[^3H] UTP, 5 nM template RNA and 0.1 U/μL RNase inhibitor (RNasin, Promega), and allowed to proceed for three hours at 30° C. The final reaction volume was 50 μL. The reaction was terminated by the addition of 50 uL of 4 mM spermine in 10 mM Tris-HCl, pH 7.5, 1 mM EDTA. The quenched reaction was allowed to incubate for at least 15 minutes at room temperature, and then the precipitated RNA was captured by filtration through a glass fiber filter (GF/B, Millipore) in a 96 well format. The filter plate was washed five times with 200 μL of 2 mM spermine, 10 mM Tris-HCl, pH 8.0, 1 mM EDTA, and two times with ethanol. After drying thoroughly in air, 30 μL of Microscint-20 scintillation cocktail (Perkin Elmer) was added to each well, and the retained cpm were determined by scintillation counting. IC50 values were determined by nonlinear regression.
(§4) % Inhibition=100*[[I]/([I]+[IC50])] equation 1
(§5) V=kcat[S]/2(Km+[S])*(sqrt((IC50+I−E)̂2+(4*IC50*E))−(IC50+I−E)) equation 2

Experiment [4] has as its system HCV NS5B polymerase 1a-H77-C316Y. Kind of experiment: biochemical. Further details: species or system HCV genotype 1a. Conditions: ratio of enzyme IC50s, 1a H77-C316Y / 1a H77. The procedure:
as §1, §2, §3, §4, §5

The target in experiment [5] is T2, HCV NS5B polymerase 1a-H77 (Hepatitis C virus genotype 1a, UniProt P27958).
T2 construct: six-histidine tag; made in house; host or cells: E. coli
Kind of experiment: biochemical. More on the design: species or system HCV genotype 1a. Conditions: enzyme, strain 1a H77; read-out: HCV Polymerase Strain 1a H77 IC50. The procedure:
as §1, §2, §3, §4, §5

Experiment [6] deals with T3, HCV NS5B polymerase 1b BK strain (Hepatitis C virus genotype 1b, UniProt P26663).
T3 construct: six-histidine tag; made in house; host or cells: E. coli
As to the kind of experiment: HCV NS5B polymerase enzymatic inhibition assay, strain 1b BK. The class given is biochemical. Conditions: enzyme, strain 1b BK; read-out: HCV Polymerase Strain 1b BK IC50. The procedure: as §1, §2, §3, §4, §5

Setting [7] is: strain 1b BB7, 5% FBS + 40% human plasma, read-out: 1b BB7 5% FBS + 40% Human Plasma EC50.
Setting [8] is: strain 1b BB7, 5% FBS, no human plasma, read-out: 1b BB7 5% FBS EC50.
The mark [9] stands for this setting: strain 1b BB7, 5% FBS, read-out: 1b BB7 5% FBS EC50.
The mark [10] stands for this setting: 5% FBS, absence of human plasma, read-out: Stable Replicon 1a H77 5% FBS EC50.
Where [11] appears, read: strain 1a H77, 5% FBS + 40% human plasma, read-out: 1a H77 5% FBS + 40% Human Plasma EC50.
Setting [12] is: strain 1a H77, 5% FBS, no human plasma, read-out: 1a H77 5% FBS EC50.
[13] abbreviates: strain 1a H77, 5% FBS, read-out: 1a H77 5% FBS EC50.

T1 sequence (P27958 2421-2990 C2736Y): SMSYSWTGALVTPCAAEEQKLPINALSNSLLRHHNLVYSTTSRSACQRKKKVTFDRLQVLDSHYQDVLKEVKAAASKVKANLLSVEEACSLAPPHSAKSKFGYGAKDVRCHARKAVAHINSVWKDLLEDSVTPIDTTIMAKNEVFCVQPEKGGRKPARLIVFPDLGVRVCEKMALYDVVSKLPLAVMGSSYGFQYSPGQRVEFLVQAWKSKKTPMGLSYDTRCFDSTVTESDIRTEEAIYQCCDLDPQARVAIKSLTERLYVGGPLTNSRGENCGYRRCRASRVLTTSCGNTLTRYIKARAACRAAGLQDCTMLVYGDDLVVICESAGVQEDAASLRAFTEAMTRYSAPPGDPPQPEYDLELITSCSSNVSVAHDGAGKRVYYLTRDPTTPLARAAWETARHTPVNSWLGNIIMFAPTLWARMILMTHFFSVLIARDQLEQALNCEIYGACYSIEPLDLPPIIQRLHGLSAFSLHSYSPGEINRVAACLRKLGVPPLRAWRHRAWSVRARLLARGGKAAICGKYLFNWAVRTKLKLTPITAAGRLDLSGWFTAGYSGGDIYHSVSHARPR
T3 sequence (P26663 2420-2989): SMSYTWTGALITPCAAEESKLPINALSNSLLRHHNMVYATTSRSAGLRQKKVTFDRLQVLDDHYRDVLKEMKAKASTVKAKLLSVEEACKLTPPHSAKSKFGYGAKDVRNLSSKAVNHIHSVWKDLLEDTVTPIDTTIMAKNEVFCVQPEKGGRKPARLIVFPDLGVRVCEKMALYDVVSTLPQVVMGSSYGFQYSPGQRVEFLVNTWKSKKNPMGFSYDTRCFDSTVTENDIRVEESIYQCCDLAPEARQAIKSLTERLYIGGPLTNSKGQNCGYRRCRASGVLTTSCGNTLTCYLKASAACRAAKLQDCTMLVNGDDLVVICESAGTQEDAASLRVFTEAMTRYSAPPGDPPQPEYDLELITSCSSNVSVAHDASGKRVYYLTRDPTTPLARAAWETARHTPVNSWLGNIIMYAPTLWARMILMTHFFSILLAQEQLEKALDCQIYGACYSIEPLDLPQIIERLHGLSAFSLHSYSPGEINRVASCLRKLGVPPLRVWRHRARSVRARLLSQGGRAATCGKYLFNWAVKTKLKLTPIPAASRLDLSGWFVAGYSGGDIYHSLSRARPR
T2 sequence (P27958 2421-2990): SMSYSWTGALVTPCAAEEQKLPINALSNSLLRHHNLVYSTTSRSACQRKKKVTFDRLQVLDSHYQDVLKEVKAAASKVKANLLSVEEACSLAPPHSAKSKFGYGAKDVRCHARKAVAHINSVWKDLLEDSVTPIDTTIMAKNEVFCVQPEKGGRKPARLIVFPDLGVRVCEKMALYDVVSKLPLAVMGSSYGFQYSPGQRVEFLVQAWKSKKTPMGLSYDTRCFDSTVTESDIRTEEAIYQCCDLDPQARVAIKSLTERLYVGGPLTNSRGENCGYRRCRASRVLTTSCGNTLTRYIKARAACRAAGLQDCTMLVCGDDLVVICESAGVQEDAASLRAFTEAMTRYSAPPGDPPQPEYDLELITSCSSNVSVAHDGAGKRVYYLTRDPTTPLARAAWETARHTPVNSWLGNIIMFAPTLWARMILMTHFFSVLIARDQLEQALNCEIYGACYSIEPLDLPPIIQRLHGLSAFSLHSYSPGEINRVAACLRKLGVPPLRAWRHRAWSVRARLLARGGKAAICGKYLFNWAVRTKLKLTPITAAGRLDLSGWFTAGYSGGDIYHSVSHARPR

One may read the EC50 as the concentration at which the effect is half-maximal. As usually defined, the IC50 is the concentration that gives 50% inhibition. In the case of `CS(=O)(=O)NC(=O)CCCN(c1cc2oc(-c3ccc(F)cc3)c(-c3ncc[nH]3)c2cc1C1CC1)S(C)(=O)=O` [Example 105, 4-{[5-cyclopropyl-2-(4-fluorophenyl)-3-(1H-imidazol-2-yl)-1-benzofuran-6-yl](methylsulfonyl)amino}-N-(methylsulfonyl)butanamide], the EC50 in experiment [1] (setting [7]) was 519 nM; in experiment [1] (setting [8]), 68.6 nM; in experiment [1] (setting [9]), 68.6 nM; in experiment [2] (setting [10]), 108 nM; in experiment [2] (setting [11]), 1060 nM; in experiment [2] (setting [12]) it was 108 nM. For the same compound, the EC50 in experiment [2] (setting [13]) came out at 108 nM. Besides, the IC50 in experiment [3] amounted to 111 nM; in experiment [5], 8 nM; in experiment [6] it was 16 nM. Also, the “C316Y/1a Fold Resistance” value in experiment [4] came to 14 fold.

Take `CS(=O)(=O)N(CCC1CCCCC1)c1cc2oc(-c3ccc(F)cc3)c(-c3ncc[nH]3)c2cc1C1CC1` [Example 72, N-(2-cyclohexylethyl)-N-[5-cyclopropyl-2-(4-fluorophenyl)-3-(1H-imidazol-2-yl)-1-benzofuran-6-yl]methanesulfonamide]: the EC50 in experiment [1] (setting [7]) was determined as 2210 nM; in experiment [1] (setting [8]), 61 nM; in experiment [1] (setting [9]), 61 nM; in experiment [2] (setting [10]) it was 73.7 nM; in experiment [2] (setting [11]) it was 3390 nM; in experiment [2] (setting [12]), 73.7 nM. Besides, in experiment [2] (setting [13]), the concentration giving a half-maximal response (EC50) was 73.7 nM. Besides, the results for the 50% inhibitory concentration (IC50) in experiment [3], in experiment [5] and in experiment [6] were 164 nM, 14.3 nM and 46 nM, respectively. The “C316Y/1a Fold Resistance” value in experiment [4] was 11 fold.

With `CS(=O)(=O)N(CCC(O)CO)c1cc2oc(-c3ccc(F)cc3)c(-c3ncc[nH]3)c2cc1C1CC1` (stereo not drawn) [Example 110, N-[5-cyclopropyl-2-(4-fluorophenyl)-3-(1H-imidazol-2-yl)-1-benzofuran-6-yl]-N-(3,4-dihydroxybutyl)methanesulfonamide], the EC50 in experiment [1] (setting [7]) turned out to be 315 nM; in experiment [1] (setting [8]) it was 16.7 nM; in experiment [1] (setting [9]), 16.7 nM; in experiment [2] (setting [10]), 14.3 nM; in experiment [2] (setting [11]) it was 206 nM; in experiment [2] (setting [12]), 14.3 nM. For the same compound, the concentration giving a half-maximal response (EC50) in experiment [2] (setting [13]) turned out to be 14.3 nM. The IC50 in experiment [3] is 125 nM; in experiment [5] it was 6.5 nM; in experiment [6] it was 12 nM. Further, the “C316Y/1a Fold Resistance” value in experiment [4] came out at 19 fold.

On to `CS(=O)(=O)N(Cc1ccccc1)c1ccc2c(-c3ncc[nH]3)c(-c3ccccc3)oc2c1` [Example 21, N-benzyl-N-[3-(1H-imidazol-2-yl)-2-phenyl-1-benzofuran-6-yl]methanesulfonamide], for which the EC50 in experiment [1] (setting [7]) amounted to 10000 nM; in experiment [1] (setting [8]), 593 nM; in experiment [1] (setting [9]) it was 593 nM; in experiment [2] (setting [10]), 3440 nM; in experiment [2] (setting [12]), 3440 nM; in experiment [2] (setting [13]), 3440 nM. Moreover, the values for the half-maximal inhibitory concentration (IC50) in experiment [3], in experiment [5] and in experiment [6] were 90 nM, 47.6 nM and 99 nM, respectively. Moreover, in experiment [4], the “C316Y/1a Fold Resistance” value amounted to 2 fold.

Consider `CC(C)(C)Oc1ncc(-c2ncc(CN(c3ccc4c(-c5ncc[nH]5)c(-c5ccccc5)oc4c3)S(C)(=O)=O)s2)c(OC(C)(C)C)n1` [Example 27, N-{[2-(2,4-di-tert-butoxypyrimidin-5-yl)-1,3-thiazol-5-yl]methyl}-N-[3-(1H-imidazol-2-yl)-2-phenyl-1-benzofuran-6-yl]methanesulfonamide], for which the 50% effective concentration (EC50) was 5460 nM in experiment [1] (setting [7]); 75 nM in experiment [1] (setting [8]); 75 nM in experiment [1] (setting [9]); 866 nM in experiment [2] (setting [10]); 10000 nM in experiment [2] (setting [11]); 866 nM in experiment [2] (setting [12]). Moreover, the EC50 in experiment [2] (setting [13]) was 866 nM. Also, the IC50 stood at 3800 nM in experiment [3], 214 nM in experiment [5] and 99 nM in experiment [6]. Besides, the “C316Y/1a Fold Resistance” value in experiment [4] was 18 fold.

Regarding `CC(C)(O)C(O)CN(c1cc2oc(-c3ccc(F)cc3)c(-c3ncc[nH]3)c2cc1C1CC1)S(C)(=O)=O` (stereo not drawn) [Example 94, N-[5-cyclopropyl-2-(4-fluorophenyl)-3-(1H-imidazol-2-yl)-1-benzofuran-6-yl]-N-(2,3-dihydroxy-3-methylbutyl)methanesulfonamide], the EC50 amounted to 360 nM in experiment [1] (setting [7]); 76.3 nM in experiment [1] (setting [8]); 76.3 nM in experiment [1] (setting [9]); 60.2 nM in experiment [2] (setting [10]); 599 nM in experiment [2] (setting [11]); 60.2 nM in experiment [2] (setting [12]). Besides, the half-maximal effective concentration (EC50) in experiment [2] (setting [13]) is 60.2 nM. Further, the IC50 in experiment [3] turned out to be 1000 nM; in experiment [5], 9.4 nM; in experiment [6] it was 28 nM. For the same compound, the “C316Y/1a Fold Resistance” value in experiment [4] worked out at 107 fold.

For `COC(=O)CCCN(c1cc2oc(-c3ccc(F)cc3)c(-c3ncc[nH]3)c2cc1C1CC1)S(C)(=O)=O` [Example 68, methyl 4-{[5-cyclopropyl-2-(4-fluorophenyl)-3-(1H-imidazol-2-yl)-1-benzofuran-6-yl](methylsulfonyl)amino}butanoate], the half-maximal effective concentration (EC50) in experiment [1] (setting [7]) stood at 496 nM; in experiment [1] (setting [8]) it was 62 nM; in experiment [1] (setting [9]), 62 nM; in experiment [2] (setting [10]), 57 nM; in experiment [2] (setting [11]), 1210 nM; in experiment [2] (setting [12]), 57 nM. Besides, the EC50 in experiment [2] (setting [13]) worked out at 57 nM. Moreover, the values for the half-maximal inhibitory concentration (IC50) in experiment [3], in experiment [5] and in experiment [6] were 103 nM, 5.9 nM and 20 nM, respectively. Further, the “C316Y/1a Fold Resistance” value in experiment [4] was 17 fold.

As to `CCC1NC(c2c(-c3ccc(F)cc3)oc3cc(N(CCC(C)C)S(C)(=O)=O)c(C4CC4)cc23)=NO1` (stereo not drawn) [Example 155, N-[5-cyclopropyl-3-(5-ethyl-4,5-dihydro-1,2,4-oxadiazol-3-yl)-2-(4-fluorophenyl)-1-benzofuran-6-yl]-N-(3-methylbutyl)methanesulfonamide], the 50% effective concentration (EC50) in experiment [1] (setting [7]) was found to be 10000 nM; in experiment [1] (setting [8]), 6250 nM; in experiment [1] (setting [9]) it was 6250 nM; in experiment [2] (setting [10]), 3060 nM; in experiment [2] (setting [11]) it was 10000 nM; in experiment [2] (setting [12]), 3060 nM. For the same compound, the EC50 in experiment [2] (setting [13]) was found to be 3060 nM. Moreover, the IC50 in experiment [3] worked out at 554 nM; in experiment [5] it was 53 nM. Moreover, in experiment [4], the “C316Y/1a Fold Resistance” value is recorded as 10 fold.

With `COc1ccc(CN(c2cc3oc(-c4ccc(F)cc4)c(C4=NC(C)CN4)c3cc2C2CC2)S(C)(=O)=O)cc1` (stereo not drawn) [Example 2a, N-[5-cyclopropyl-2-(4-fluorophenyl)-3-(4-methyl-4,5-dihydro-1H-imidazol-2-yl)-1-benzofuran-6-yl]-N-(4-methoxybenzyl)methanesulfonamide], the concentration for half-maximal inhibition (IC50) was determined as 224 nM in experiment [3], 15 nM in experiment [5] and 55 nM in experiment [6]. In addition, the “C316Y/1a Fold Resistance” value in experiment [4] is recorded as 15 fold.

For the origin of these results see US20160355530A1, “HEPATITIS C INHIBITORS AND USES THEREOF” (AbbVie Inc., priority 2010, published 2016).
